Results from patent US9630922B2, “3-spiro-7-hydroxamic acid tetralins as HDAC inhibitors” (Forma Therapeutics, Inc., priority 2015, dated 2017).

biological target: T1, HDAC6 (Homo sapiens, UniProt Q9UBN7); assay: In vitro Histone Deacetylase Assay (enzymatic HDAC6 electrophoretic mobility shift assay); assay type: biochemical; settings: full length human recombinant HDAC6, 1 nM enzyme, 2 μM peptide substrate RHKK(Ac)-NH2, 25° C.; read-out: HDAC6 activity range
T1 construct: Full length human recombinant HDAC6 protein was expressed in baculoviral system; made in house; host or cells: baculoviral system
T1 sequence (Q9UBN7 1-1215): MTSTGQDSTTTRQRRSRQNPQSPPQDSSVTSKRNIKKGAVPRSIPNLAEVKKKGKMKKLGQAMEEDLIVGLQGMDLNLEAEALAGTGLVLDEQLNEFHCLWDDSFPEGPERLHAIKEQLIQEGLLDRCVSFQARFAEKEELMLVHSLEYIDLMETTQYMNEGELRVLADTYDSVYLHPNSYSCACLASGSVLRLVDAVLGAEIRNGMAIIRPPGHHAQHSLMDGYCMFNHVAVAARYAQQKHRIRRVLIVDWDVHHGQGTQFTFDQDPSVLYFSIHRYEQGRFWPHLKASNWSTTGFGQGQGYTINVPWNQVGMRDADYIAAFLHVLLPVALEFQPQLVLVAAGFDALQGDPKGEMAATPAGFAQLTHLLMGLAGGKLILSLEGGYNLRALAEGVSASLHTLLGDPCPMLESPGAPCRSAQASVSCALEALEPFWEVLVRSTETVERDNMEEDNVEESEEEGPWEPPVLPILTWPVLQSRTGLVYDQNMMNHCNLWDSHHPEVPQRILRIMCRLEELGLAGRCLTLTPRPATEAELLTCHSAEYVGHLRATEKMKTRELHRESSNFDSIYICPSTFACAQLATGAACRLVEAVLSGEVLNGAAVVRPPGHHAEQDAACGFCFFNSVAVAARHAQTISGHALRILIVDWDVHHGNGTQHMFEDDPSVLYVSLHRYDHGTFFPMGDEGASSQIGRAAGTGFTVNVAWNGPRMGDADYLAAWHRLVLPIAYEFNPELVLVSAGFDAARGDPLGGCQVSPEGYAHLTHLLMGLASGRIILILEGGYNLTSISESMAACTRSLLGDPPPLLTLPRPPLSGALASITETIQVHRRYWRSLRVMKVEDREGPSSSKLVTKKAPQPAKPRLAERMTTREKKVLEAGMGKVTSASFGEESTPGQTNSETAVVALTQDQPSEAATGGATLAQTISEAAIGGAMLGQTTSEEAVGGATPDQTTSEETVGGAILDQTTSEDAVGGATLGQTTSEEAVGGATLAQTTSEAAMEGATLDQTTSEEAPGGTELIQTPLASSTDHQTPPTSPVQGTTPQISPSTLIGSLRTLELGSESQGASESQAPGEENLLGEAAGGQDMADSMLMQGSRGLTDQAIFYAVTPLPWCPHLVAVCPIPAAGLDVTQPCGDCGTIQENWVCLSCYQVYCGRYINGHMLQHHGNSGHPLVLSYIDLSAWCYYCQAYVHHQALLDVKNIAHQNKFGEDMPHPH
Procedure: The enzymatic HDAC6 assay was performed using electrophoretic mobility shift assay. Full length human recombinant HDAC6 protein was expressed in baculoviral system and purified by affinity chromatography. The enzymatic reactions were assembled in 384 well plates in a total volume of 25 μL in a reaction buffer composing: 100 mM HEPES, pH7.5, 25 mM KCl, 0.1% bovine serum albumin, 0.01% Triton X-100, 1% DMSO (from compounds) 2 μM of the fluorescently labeled peptide substrate and enzyme. The enzyme was added at a final concentration of 1 nM. The peptide substrate RHKK(Ac)—NH2 was used. The compounds were tested at 12 concentrations spaced by 3× dilution intervals. Negative control samples (0%-inhibition in the absence of inhibitor) and positive control samples (100%-inhibition) were assembled in replicates of four in each assay plate. The reactions were incubated at 25° C. and quenched by the addition of 45 μL of termination buffer (100 mM HEPES, pH 7.5, 0.01% Triton X-100, 0.05% SDS).
The terminated assay plates were analyzed on LabChip® 3000 microfluidic electrophoresis instrument (Perkin Elmer/Caliper Life Sciences). The fluorescence intensity of the electrophoretically separated de-acetylated product and substrate peptide was measured. Activity in each sample was determined as the product to sum ratio (PSR): P/(S+P), where P is the peak height of the product peptide and S is the peak height of the substrate peptide. Percent inhibition (Pinh) is determined using the following equation:
Pinh=(PSR0%−PSRinh)/(PSR0%−PSR100%)*100, where PSRinh is the product sum ratio in the presence of inhibitor, PSR0% is the average product sum ration in the absence of inhibitor and PSR100% is the average product sum ratio in 100%-inhibition control samples. The IC50 values of inhibitors were determined by fitting the %-inhibition curves with 4 parameter dose-response model using XLfit 4 software.
As set forth in Table-31, below, IC50 values are defined as follows: IC50≦0.1 μM (+++); IC50>0.1 μM and ≦0.5 μM (++); IC50>0.5 μM (+).

| IC50 [nM] | SMILES |
| --- | --- |
| ≤ 100 | CC(C)N1CC[C@]2(CCc3cc(C(=O)NO)ccc3C2)C1=O [Compound I-24, (R)-N-hydroxy-1′-isopropyl-2′-oxo-3,4-dihydro-1H-spiro[naphthalene-2,3′-pyrrolidine]-6-carboxamide] |
| ≤ 100 | O=C(NO)c1ccc2c(c1)CC[C@]1(CCN(c3ccccc3)C1=O)C2 [Compound I-26, (R)-N-hydroxy-2′-oxo-1′-phenyl-3,4-dihydro-1H-spiro[naphthalene-2,3′-pyrrolidine]-6-carboxamide] |
| ≤ 100 | O=C(NO)c1ccc2c(c1)CC[C@@]1(CCNC1=O)C2 [Compound I-28, (S)-N-hydroxy-2′-oxo-3,4-dihydro-1H-spiro[naphthalene-2,3′-pyrrolidine]-6-carboxamide] |
| ≤ 100 | CCCN1CC[C@]2(CCc3cc(C(=O)NO)ccc3C2)C1=O [Compound I-32, (R)-N-hydroxy-2′-oxo-1′-propyl-3,4-dihydro-1H-spiro[naphthalene-2,3′-pyrrolidine]-6-carboxamide] |
| ≤ 100 | O=C(NO)c1ccc2c(c1)CC[C@]1(CCN(C/C=C/c3ccccc3)C1=O)C2 [Compound I-37, (R)-1′-cinnamyl-N-hydroxy-2′-oxo-3,4-dihydro-1H-spiro[naphthalene-2,3′-pyrrolidine]-6-carboxamide] |
| ≤ 100 | O=C(NO)c1ccc2c(c1)CC[C@]1(CCN(Cc3ccccc3C(F)(F)F)C1=O)C2 [Compound I-39, (R)-N-hydroxy-2′-oxo-1′-(2-(trifluoromethyl)benzyl)-3,4-dihydro-1H-spiro[naphthalene-2,3′-pyrrolidine]-6-carboxamide] |
| ≤ 100 | O=C(NO)c1ccc2c(c1)CC[C@]1(CCN(Cc3ccccc3OC(F)(F)F)C1=O)C2 [Compound I-41, (R)-N-hydroxy-2′-oxo-1′-(2-(trifluoromethoxy)benzyl)-3,4-dihydro-1H-spiro[naphthalene-2,3′-pyrrolidine]-6-carboxamide] |
| ≤ 100 | O=C(NO)c1ccc2c(c1)CC[C@]1(CCN(Cc3ccc4nonc4c3)C1=O)C2 [Compound I-42, (R)-1′-(benzo[c][1,2,5]oxadiazol-5-ylmethyl)-N-hydroxy-2′-oxo-3,4-dihydro-1H-spiro[naphthalene-2,3′-pyrrolidine]-6-carboxamide] |

Continued, molecule first:

| SMILES | IC50 [nM] |
| --- | --- |
| COCCn1c(CN2CC[C@]3(CCc4cc(C(=O)NO)ccc4C3)C2=O)nc2ccccc21 [Compound I-22, (R)-N-hydroxy-1′-((1-(2-methoxyethyl)-1H-benzo[d]imidazol-2-yl)methyl)-2′-oxo-3,4-dihydro-1H-spiro[naphthalene-2,3′-pyrrolidine]-6-carboxamide] | ≤ 100 |
| COCCn1c(CN2CC[C@@]3(CCc4cc(C(=O)NO)ccc4C3)C2=O)nc2ccccc21 [Compound I-23, (S)-N-hydroxy-1′-((1-(2-methoxyethyl)-1H-benzo[d]imidazol-2-yl)methyl)-2′-oxo-3,4-dihydro-1H-spiro[naphthalene-2,3′-pyrrolidine]-6-carboxamide] | ≤ 100 |
| CC(C)N1CC[C@@]2(CCc3cc(C(=O)NO)ccc3C2)C1=O [Compound I-25, (S)-N-hydroxy-1′-isopropyl-2′-oxo-3,4-dihydro-1H-spiro[naphthalene-2,3′-pyrrolidine]-6-carboxamide] | ≤ 100 |
| O=C(NO)c1ccc2c(c1)CC[C@]1(CCNC1=O)C2 [Compound I-27, (R)-N-hydroxy-2′-oxo-3,4-dihydro-1H-spiro[naphthalene-2,3′-pyrrolidine]-6-carboxamide] | ≤ 100 |
| O=C(NO)c1ccc2c(c1)CC[C@@]1(CCN(c3ccccc3)C1=O)C2 [Compound I-29, (S)-N-hydroxy-2′-oxo-1′-phenyl-3,4-dihydro-1H-spiro[naphthalene-2,3′-pyrrolidine]-6-carboxamide] | ≤ 100 |
| O=C(NO)c1ccc2c(c1)CC[C@]1(CCN(Cc3cnc(Cl)s3)C1=O)C2 [Compound I-30, (R)-1′-((2-chlorothiazol-5-yl)methyl)-N-hydroxy-2′-oxo-3,4-dihydro-1H-spiro[naphthalene-2,3′-pyrrolidine]-6-carboxamide] | ≤ 100 |
| O=C(NO)c1ccc2c(c1)CC[C@]1(CCN(Cc3cnc(O)s3)C1=O)C2 [Compound I-31, (R)-N-hydroxy-1′-((2-hydroxythiazol-5-yl)methyl)-2′-oxo-3,4-dihydro-1H-spiro[naphthalene-2,3′-pyrrolidine]-6-carboxamide] | ≤ 100 |
| O=C(NO)c1ccc2c(c1)CC[C@]1(CCN(CC3CCC3)C1=O)C2 [Compound I-33, (R)-1′-(cyclobutylmethyl)-N-hydroxy-2′-oxo-3,4-dihydro-1H-spiro[naphthalene-2,3′-pyrrolidine]-6-carboxamide] | ≤ 100 |
| CC(C)CCN1CC[C@]2(CCc3cc(C(=O)NO)ccc3C2)C1=O [Compound I-34] | ≤ 100 |
| CC#CCN1CC[C@]2(CCc3cc(C(=O)NO)ccc3C2)C1=O [Compound I-35, (R)-1′-(but-2-yn-1-yl)-N-hydroxy-2′-oxo-3,4-dihydro-1H-spiro[naphthalene-2,3′-pyrrolidine]-6-carboxamide] | ≤ 100 |
| COCCN1CC[C@]2(CCc3cc(C(=O)NO)ccc3C2)C1=O [Compound I-36, (R )-N-hydroxy-1′-(2-methoxyethyl)-2′-oxo-3,4-dihydro-1H-spiro[naphthalene-2,3′-pyrrolidine]-6-carboxamide] | ≤ 100 |
| Cc1ccccc1CN1CC[C@]2(CCc3cc(C(=O)NO)ccc3C2)C1=O [Compound I-38, (R)-N-hydroxy-1′-(2-methylbenzyl)-2′-oxo-3,4-dihydro-1H-spiro[naphthalene-2,3′-pyrrolidine]-6-carboxamide] | ≤ 100 |
| O=C(NO)c1ccc2c(c1)CC[C@]1(CCN(Cc3ccccc3Cl)C1=O)C2 [Compound I-40, (R)-1′-(2-chlorobenzyl)-N-hydroxy-2′-oxo-3,4-dihydro-1H-spiro[naphthalene-2,3′-pyrrolidine]-6-carboxamide] | ≤ 100 |
| O=C(NO)c1ccc2c(c1)CC[C@]1(CCN(CC(=O)N3CCOCC3)C1=O)C2 [Compound I-43, (R)-N-hydroxy-1′-(2-morpholino-2-oxoethyl)-2′-oxo-3,4-dihydro-1H-spiro[naphthalene-2,3′-pyrrolidine]-6-carboxamide] | ≤ 100 |
| COc1ccccc1CN1CC[C@]2(CCc3cc(C(=O)NO)ccc3C2)C1=O [Compound I-44, (R)-N-hydroxy-1′-(2-methoxybenzyl)-2′-oxo-3,4-dihydro-1H-spiro[naphthalene-2,3′-pyrrolidine]-6-carboxamide] | ≤ 100 |
| CC(C)n1c(CN2CC[C@]3(CCc4cc(C(=O)NO)ccc4C3)C2=O)nc2ccccc21 [Compound I-45] | ≤ 100 |
| Cn1c(CN2CC[C@]3(CCc4cc(C(=O)NO)ccc4C3)C2=O)nc2ccccc21 [Compound I-46, (R)-N-hydroxy-1′-((1-methyl-1H-benzo[d]imidazol-2-yl)methyl)-2′-oxo-3,4-dihydro-1H-spiro[naphthalene-2,3′-pyrrolidine]-6-carboxamide] | ≤ 100 |
